Assay results taken from publication PMC9604400, “Synthesis, Anticancer and Antitubercular Properties of New Chalcones and Their Nitrogen-Containing Five-Membered Heterocyclic Hybrids Bearing Sulfonamide Moiety” (International Journal of Molecular Sciences, 2022).
Several values for one entry are separate records, joined by “and”; a condition that tells them apart may be missing. Equal values may be shown once.

How the values were obtained:
HCC-2998 = assay: NCI-60 screen (SRB), colon cancer; conditions: for IC50 / CC50: Homo sapiens; for IC50: HCC 2998; for CC50: HCC 2998, read-out: LC50
SF-539 = assay: NCI-60 screen (SRB), CNS cancer; conditions: Homo sapiens; for IC50: SF-539; for CC50: SF-539, read-out: LC50
OVCAR-3 = assay: NCI-60 screen (SRB), ovarian cancer; conditions: Homo sapiens; for IC50: OVCAR-3; for CC50: OVCAR-3, read-out: LC50
BT-549 = assay: NCI-60 screen (SRB), breast cancer; conditions: Homo sapiens; for IC50: BT-549; for CC50: BT-549, read-out: LC50
RPMI-8226 = assay: NCI-60 screen (SRB), leukemia; conditions: Homo sapiens; for IC50: RPMI-8226; for CC50: RPMI-8226, read-out: LC50
SF-295 = assay: NCI-60 screen (SRB), CNS cancer; conditions: Homo sapiens; for IC50: SF-295; for CC50: SF-295, read-out: LC50
SK-MEL-2 = assay: NCI-60 screen (SRB), melanoma; conditions: for IC50 / CC50: Homo sapiens; for IC50: SK-MEL-2; for CC50: SK-MEL-2, read-out: LC50
[1] = system: 60 human cancer cell lines; assay: NCI-60 screen (SRB), whole panel; assay type: cell-based; conditions: for IC50 / inhibition at 10 µM: Homo sapiens; for IC50: five-dose screen, read-out: IC50 values against most cell lines (range); for inhibition at 10 µM: read-out: Mean growth inhibition (GI) percentage
A498 = assay: NCI-60 screen (SRB), renal cancer; conditions: Homo sapiens; for IC50: A498; for CC50: A498, read-out: LC50
OVCAR-8 = assay: NCI-60 screen (SRB), ovarian cancer; conditions: Homo sapiens; for IC50: OVCAR-8; for CC50: OVCAR-8, read-out: LC50
SNB-75 = assay: NCI-60 screen (SRB), CNS cancer; conditions: Homo sapiens; for IC50: SNB-75; for CC50: SNB-75, read-out: LC50
SNB-19 = assay: NCI-60 screen (SRB), CNS cancer; conditions: Homo sapiens; for IC50: SNB-19; for CC50: SNB-19, read-out: LC50
CCRF-CEM = assay: NCI-60 screen (SRB), leukemia; conditions: Homo sapiens; for CC50: read-out: LC50
KM12 = assay: NCI-60 screen (SRB), colon cancer; conditions: Homo sapiens; for IC50: KM12; for CC50: KM12, read-out: LC50
NCI-H322M = assay: NCI-60 screen (SRB), non-small cell lung cancer; assay type: cell-based; conditions: Homo sapiens; for IC50: five-dose screen; for CC50: read-out: LC50
Description: All compounds selected by the US National Cancer Institute (NCI) were initially tested at a single dose (10^−5 M) on the full panel of 60 cancer cell lines represented by leukemia, melanoma, lung, colon, central nervous system (CNS), ovarian, kidney, prostate and breast cancer. Only compounds that were able to satisfy the predetermined inhibition criteria against a minimum number of cell lines proceeded to five-dose assays ([…], 0.1 and 0.01 μM).
In these studies, human cancer cell lines were cultured in a RPMI-1640 medium containing 5% fetal bovine serum and 2 mM of L-glutamine. Following the protocol for a typical assay, cells were inoculated into 96-well plates and incubated at 37 °C, 5% CO2, 95% air, and 100% relative humidity for 24 h prior to the addition of the compounds to be tested. After 24 h, two plates of each cell line were fixed in situ with trichloroacetic acid (TCA) to represent a measure of the cell population for each cell line at the time of sample addition (Tz). Compounds were dissolved in DMSO to 400-fold the maximum desired concentration for analysis and subsequently diluted to twice the maximum desired concentration with medium containing 50 μg/mL gentamicin. An additional series of four dilutions at 10-fold concentration was performed to provide a total of five concentrations of the compound plus the control. Aliquots of 100 μL of these dilutions were taken and added to 96-well plates already containing 100 μL of the medium, resulting in the final required concentrations of the sample. The plates were incubated for 48 h at the same conditions. For adherent cells, the assay was terminated with the addition of cold TCA. Cells were fixed in situ by the slow addition of 50 μL of 50% (w/v) cold ATC (final concentration, 10% TCA) and incubated for 60 min at 4 °C. The supernatant was discarded, and the plates were washed five times with tap water and air dried. A quantity of 100 μL of 0.4% (w/v) sulforhodamine B (SRB) solution in 1% acetic acid was added to each well, and each plate was incubated for 10 min at room temperature. Upon completion of staining, unbound pigment was removed by five washes with 1% acetic acid and the plates were air-dried. The stains were solubilized with 10 mM Trizma base and absorbance was recorded on an automated plate reader at a wavelength of 515 nm. Using the absorbance measurements [time zero (Tz), growth control in the absence of the sample and growth test in the presence of the sample at the five concentration levels (Ti)], the percent growth was calculated for each sample at the concentration levels. The percent growth was calculated as: [(Ti − Tz)/(C − Tz)] × 100 for concentrations for which Ti > Tz, and [(Ti − Tz)/Tz] × 100 for concentrations for which Ti < Tz. Two dose-response parameters were calculated for each compound. The 50% growth inhibition (GI50) was calculated from [(Ti − Tz)/(C − Tz)] × 100 = 50, which is the sample concentration at which the net increase in protein is 50% lower in treated cells (as measured by SRB staining) compared to the net increase in protein seen in control cells and the LC50 (sample concentration at which a 50% reduction in protein measured at the end of treatment compared to the beginning), indicating a net loss of cells; calculated from [(Ti − Tz)/Tz] × 100 = −50. Values were calculated for each of these two parameters if the activity level was reached; however, if the effect was not reached or was exceeded, the value for that parameter was expressed as greater or less than the maximum or minimum of the concentration tested.

K-562 = assay: NCI-60 screen (SRB), leukemia; conditions: Homo sapiens; for IC50: K562; for CC50: K562, read-out: LC50
EKVX = assay: NCI-60 screen (SRB), non-small cell lung cancer; conditions: Homo sapiens; for CC50: read-out: LC50
T-47D = assay: NCI-60 screen (SRB), breast cancer; conditions: Homo sapiens, T47D; for CC50: read-out: LC50
[2] = single dose 10 μM, mean over 60 cell lines, over 100% = cell death

Row | Structure (SMILES) | IC50 (HCC-2998) | CC50 (HCC-2998) | IC50 (SF-539) | CC50 (SF-539) | IC50 (OVCAR-3) | CC50 (OVCAR-3) | IC50 (BT-549) | CC50 (BT-549) | IC50 (RPMI-8226) | CC50 (RPMI-8226) | IC50 (SF-295) | CC50 (SF-295) | IC50 (SK-MEL-2) | CC50 (SK-MEL-2) | IC50 (A498) | CC50 (A498) | IC50 (OVCAR-8) | CC50 (OVCAR-8) | IC50 (SNB-75) | CC50 (SNB-75) | further results
1 | COc1cc(OC)c(S(=O)(=O)N(CCCl)CCCl)cc1C(=O)/C=C/c1cc(OC)c(OC)c(OC)c1 [Compound 18e, (E)-N,N-bis(2-Chloroethyl)-2,4-dimethoxy-5-(3-(3,4,5-trimethoxyphenyl)acryloyl)benzenesulfonamide] | 3.54 µM | 6.35 µM | 3.61 µM | 7.51 µM | 6.62 µM | > 100 µM | 2.92 µM | 6.24 µM | 2.52 µM | > 100 µM | 35.4 µM | > 100 µM | 4.65 µM | 27.6 µM | 7.23 µM | 65.5 µM | > 100 µM | > 100 µM | 8.53 µM | > 100 µM | lethality (HCC-2998; HCC-2998, single dose 10 μM): 91.08%; lethality (SK-MEL-2; SK-MEL-2, single dose 10 μM): 94.49%; mean lethality ([1]; single dose 10 μM, mean over 60 cell lines): 25.48%; Mean growth inhibition (GI) percentage [1, 2]: 100.00% and 125.48%; IC50 (SNB-19): 5.71 µM; CC50 (SNB-19): 45.7 µM; IC50 (CCRF-CEM): 1.69 µM; CC50 (CCRF-CEM): > 100 µM; IC50 (KM12): 4.25 µM; CC50 (KM12): 9.4 µM; IC50 (NCI-H322M): 3 µM; CC50 (NCI-H322M): > 100 µM; IC50 (K-562): 1.3 µM; CC50 (K-562): > 100 µM; IC50 (EKVX): 2.69 µM; CC50 (EKVX): > 100 µM; IC50 (T-47D): > 100 µM; CC50 (T-47D): > 100 µM
2 | COc1cc(OC)c(S(N)(=O)=O)cc1C(=O)/C=C/c1ccc(Cl)cc1 [Compound 17b, (E)-5-(3-(4-Chlorophenyl)acryloyl)-2,4-dimethoxybenzenesulfonamide] | 2.41 µM | 22.3 µM | 2.14 µM | 12.6 µM | 3.51 µM | 66.8 µM | 2.73 µM | 5.97 µM | 1.86 µM | > 100 µM | 3.88 µM | 57.6 µM | 11.5 µM | 57.2 µM | 18.6 µM | 62.2 µM | 3.01 µM | > 100 µM | 1.5 µM | 6.95 µM | IC50 [1]: 0.73 to 18.6 µM; inhibition at 10 µM [1, 2]: 94.1%; IC50 (SNB-19): 3.17 µM; CC50 (SNB-19): > 100 µM; IC50 (CCRF-CEM): 1.52 µM; CC50 (CCRF-CEM): > 100 µM; IC50 (KM12): 1.82 µM; CC50 (KM12): > 100 µM; IC50 (NCI-H322M): 2.31 µM; CC50 (NCI-H322M): 38.7 µM; IC50 (K-562): 1.85 µM; CC50 (K-562): > 100 µM; IC50 (EKVX): 3.88 µM; CC50 (EKVX): > 100 µM; IC50 (T-47D): 12.4 µM; CC50 (T-47D): 64.6 µM
3 | COc1cc(OC)c(S(N)(=O)=O)cc1C(=O)/C=C/c1ccc(C)cc1 [Compound 17c, (E)-2,4-Dimethoxy-5-(3-(p-tolyl)acryloyl)benzenesulfonamide] | 2.39 µM | 22.3 µM | 2.17 µM | 14.4 µM | 3.05 µM | > 100 µM | 2.18 µM | 31.6 µM | 3.2 µM | > 100 µM | 3.89 µM | 43.2 µM | 11.5 µM | 55.7 µM | 16.2 µM | 58.1 µM | 2.17 µM | 15.8 µM | 1.84 µM | 18.2 µM | IC50 [1]: 0.54 to 11.5 µM; inhibition at 10 µM [1, 2]: 81.2%; IC50 (SNB-19): 3.65 µM; CC50 (SNB-19): 45.3 µM; IC50 (CCRF-CEM): 3.99 µM; CC50 (CCRF-CEM): > 100 µM; IC50 (KM12): 3.13 µM; CC50 (KM12): > 100 µM; IC50 (NCI-H322M): 2.87 µM; CC50 (NCI-H322M): 34.7 µM; IC50 (K-562): 2.43 µM; CC50 (K-562): > 100 µM; IC50 (EKVX): 4.33 µM; CC50 (EKVX): 43.3 µM; IC50 (T-47D): 2.32 µM; CC50 (T-47D): 44.8 µM
4 | COc1cc(OC)c(S(N)(=O)=O)cc1C(=O)C=Cc1ccccc1 [Compound 17a, 5-Cinnamoyl-2,4-dimethoxybenzenesulfonamide] | 12.5 µM | 54.7 µM | 2.44 µM | 30.1 µM | 2.71 µM | 38.3 µM | 2.65 µM | 40.6 µM | 2.98 µM | > 100 µM | 15.7 µM | 58.2 µM | 12.6 µM | 55.9 µM | 16.9 µM | 55.8 µM | 11.3 µM | 51.3 µM | 2.08 µM | 26.9 µM | IC50 [1]: 0.34 to 17.6 µM; inhibition at 10 µM [1, 2]: 71.8%; IC50 (SNB-19): 14 µM; CC50 (SNB-19): 58 µM; IC50 (CCRF-CEM): 3.93 µM; CC50 (CCRF-CEM): > 100 µM; IC50 (KM12): 3.31 µM; CC50 (KM12): 62.3 µM; IC50 (NCI-H322M): 10.7 µM; CC50 (NCI-H322M): 47.6 µM; IC50 (K-562): 1.5 µM; CC50 (K-562): > 100 µM; IC50 (EKVX): 14.2 µM; CC50 (EKVX): 53.6 µM; IC50 (T-47D): 2.09 µM; CC50 (T-47D): 51.6 µM
